Measurements published in US10369145B2, “Coumarin derivatives and methods of use in treating hyperproliferative diseases” (DISCOVERYBIOMED, INC., priority 2013, dated 2019).

Columns and labels:
[1] = system: OVCAR-8; assay: NCI 60 panel: OVCAR-8 (Ovarian Cancer); type: cell-based
Description: (§5) TGI means the drug concentration resulting in total growth inhibition or “cytostasis.” LC50 is the concentration of drug resulting in a 50% reduction in the measured cytosolic ATP at the end of the drug treatment as compared to that at the beginning, indicating a net loss of cells following treatment (cytotoxicity).

[2] = system: HS 578T; assay: NCI 60 panel: HS 578T (Breast Cancer); type: cell-based
Description: as §5

[3] = system: MOLT-4; assay: NCI 60 panel: MOLT-4 (Leukemia); type: cell-based
Description: as §5

[4] = system: U251MG glioblastoma cells; assay: Propidium iodide-based cell cycle analysis; settings: 24 h
Description: Cell cycle analysis was performed on U251-MG cells to determine at what point in the cell cycle the compounds described herein were acting. U251MG glioblastoma cells were treated for 24 h with increasing concentrations of Compound DBM 228.
However, at higher nM doses, the cells appear to progress toward apoptosis and programmed cell death, given the higher % of cells in pre-G0/G1.

[5] = system: LOX IMVI; assay: NCI 60 panel: LOX IMVI (Melanoma); type: cell-based
Description: as §5

[6] = system: HCC-2998; assay: NCI 60 panel: HCC-2998 (Colon Cancer); type: cell-based
Description: as §5

[7] = system: SK-OV-3; assay: Complementary DBM in vitro profiling: SK-OV-3 (Ovarian Cancer); type: cell-based
Description: (§1) The compounds described herein are effective for inhibiting cellular proliferation in hyperproliferative cell types. To study the effects of these compounds, an assay was developed to differentiate the effects of the compounds on proliferating versus confluent cells. The assay design generates a proliferating density 24 hours after seeding and provides a 3-day active cell growth/doubling window in which to gauge the anti-proliferative effect of the compounds described herein. […] In this 3-day growth window, cell number increases with daily doublings across the 72-hour period (see FIG. 1).
(§2) In each assay design, compounds were added at the 24-hour timepoint after cell seeding. The effect of the compounds, relative to vehicle control and to VelCade (a proteasome inhibitor approved in the U.S. for treating relapsed multiple myeloma and mantle cell lymphoma) as a positive control, was assessed across the 3-day growth window for proliferating cells and on an already near confluent culture of cells for the same time period. Normal cells were handled in the same manner, with some adjustment of seeding density needed in select cases. […]
(§3) Cell number at the end of the assay was determined using the CELLTITER-GLO Luminescent Cell Viability Assay (Promega; Madison, Wis.). The CELLTITER-GLO Luminescent Cell Viability Assay is a homogeneous method of determining the number of viable cells in culture based on quantitation of the ATP present, an indicator of metabolically active cells. IC50 values were calculated. […]
(§4) For a typical screening experiment to identify the compounds, cells were seeded into 96- or 384-well microtiter plates at plating densities pre-determined for each cell line to ensure drug exposure occurs during the proliferative phase well before confluency is reached. […] Values were calculated for each of these three parameters if the level of activity was reached; however, if the effect was not reached or was exceeded, the value for that parameter was expressed as greater or less than the maximum or minimum concentration tested.

[8] = system: SK-MEL-5; assay: NCI 60 panel: SK-MEL-5 (Melanoma); type: cell-based
Description: as §5

[9] = system: HCT-116; assay: NCI 60 panel: HCT-116 (Colon Cancer); type: cell-based
Description: as §5

[10] = system: SF-268; assay: NCI 60 panel: SF-268 (CNS Cancer); type: cell-based
Description: as §5

[11] = system: NCI-H226; assay: NCI 60 panel: NCI-H226 (Non-Small Cell Lung Cancer); type: cell-based
Description: as §5

[12] = system: T98G; assay: Complementary DBM in vitro profiling: T98G (CNS Cancer); type: cell-based
Description: as §1, §2, §3, §4

[13] = system: 786-0; assay: NCI 60 panel: 786-0 (Renal Cancer); type: cell-based
Description: as §5

[14] = system: TK-10; assay: NCI 60 panel: TK-10 (Renal Cancer); type: cell-based
Description: as §5

[15] = system: SNB-19; assay: NCI 60 panel: SNB-19 (CNS Cancer); type: cell-based
Description: as §5

[16] = system: K-562; assay: NCI 60 panel: K-562 (Leukemia); type: cell-based
Description: as §5

[17] = system: BT-549; assay: NCI 60 panel: BT-549 (Breast Cancer); type: cell-based
Description: as §5

[18] = system: NCI-60 cell panel; assay: NCI-60 cell panel, whole panel; type: cell-based, human; settings: average in the NCI-60 cell panel
[19] = system: MDA-MB-435; assay: NCI 60 panel: MDA-MB-435 (Melanoma); type: cell-based
Description: as §5

[20] = system: DU-145; assay: NCI 60 panel: DU-145 (Prostate Cancer); type: cell-based
Description: as §5

[21] = read-out: LC50 (the source's name)

## COc1ccccc1Nc1nc(-c2cc3cccc(N)c3oc2=O)cs1 [Compound DBM 228]
[1]
  GI50: 310 nM
  TGI: 13.2 µM
[1]; [21]
  CC50: > 100 µM
[2]
  GI50: 13.7 µM
  TGI: >100 µM
[2]; [21]
  CC50: > 100 µM
[3]
  GI50: 168 nM
  TGI: 17.8 µM
[3]; [21]
  CC50: > 100 µM
[4]; 40 nM
  percentage of cells in G0/G1: 52.2%
  percentage of cells in G2/M: 30.2%
  percentage of cells in Pre-G0/G1: 3.2%
  percentage of cells in S: 14.4%
[4]; 100 nM
  percentage of cells in G0/G1: 19.7%
  percentage of cells in G2/M: 41.1%
  percentage of cells in Pre-G0/G1: 13.6%
  percentage of cells in S: 25.6%
[4]; 400 nM
  percentage of cells in G0/G1: 1.8%
  percentage of cells in G2/M: 49.3%
  percentage of cells in Pre-G0/G1: 43.1%
  percentage of cells in S: 5.8%
[4]; increasing concentrations
  cell cycle effect, in words: G2/M arrest
[5]
  GI50: 900 nM
  TGI: 50.8 µM
[5]; [21]
  CC50: > 100 µM
[6]
  GI50: 1050 nM
  TGI: 16.5 µM
[6]; [21]
  CC50: > 100 µM
[7]
  GI50: 845 nM
  TGI: >30 µM
[7]; [21]
  CC50: > 30 µM
[8]
  GI50: 76.8 nM
  TGI: 2.3 µM
[8]; [21]
  CC50: 26.8 µM
[9]
  GI50: 79.5 nM
  TGI: 10 µM
[9]; [21]
  CC50: > 100 µM
[10]
  GI50: 770 nM
  TGI: 55.3 µM
[10]; [21]
  CC50: > 100 µM
[11]
  GI50: 11.2 µM
  TGI: 37.2 µM
[11]; [21]
  CC50: > 100 µM
[12]
  GI50: 467 nM
  TGI: 3.97 µM
[12]; [21]
  CC50: 17.6 µM
[13]
  GI50: 709 nM
  TGI: 15.9 µM
[13]; [21]
  CC50: 89.4 µM
[14]
  GI50: 10 µM
  TGI: 23.5 µM
[14]; [21]
  CC50: 55 µM
[15]
  GI50: 182 nM
  TGI: 35 µM
[15]; [21]
  CC50: > 100 µM
[16]
  GI50: 43 nM
  TGI: 16.1 µM
[16]; [21]
  CC50: > 100 µM
[17]
  GI50: 239 nM
  TGI: 12.3 µM
[17]; [21]
  CC50: > 100 µM
[18]
  GI50: 250 nM
[19]
  GI50: 23.1 nM
  TGI: 67.9 nM
[19]; [21]
  CC50: 69.5 µM
[20]
  GI50: 356 nM
  TGI: 5.31 µM
[20]; [21]
  CC50: 41 µM
